Experimental data as given in patent publication US20070116785A1, “Nitric oxide as an anti-viral agent, vaccine and vaccine adjuvant” (priority 2005, published 2007).
Entries after “also recorded” stand apart in the source; their conditions may differ.

What was measured:
Bovine Respiratory Virus = assay: In vivo bovine feedlot study (Example 6); set-up: species or system calves
Experimental: A similar in vivo bovine study as in Example 5 was conducted with one hundred and fifty-eight (158) calves. The calves were shipped into a commercial feedlot, wherein some of the animals at the feedlot were infected with BRV. The […] calves were treated with either: (1) 4 minutes of approximately 160-260 ppm nitric oxide gas (30-60 breaths); or (2) conventional antibiotic, antiviral and immunization medications. 42 calves were treated with gNO, while 116 calves were treated with conventional antibiotics.

[1] = test system: Bovine Respiratory Disease (BRD)
influenza A virus = assay: Plaque assay in MDCK cells with virus exposed to nitric oxide gas (Example 1); format: cell-based; conditions: virus exposed to 160 ppm nitric oxide gas for 1, 2 and 3 hours; vs air control; FIG. 1
[2] = test system: influenza A/Victoria/H3N2; assay: Plaque assay in MDCK cells with gNO-exposed virus, several concentrations and dosing techniques (Example 2); format: cell-based
[3] = test system: Highly Pathogenic Avian Influenza (HPAI) H7N3; format: cell-based
influenza A/H3N2 = assay: Plaque assay in MDCK cells with gNO-exposed virus (Example 2); format: cell-based

## [N]=O [gNO, Nitric oxide]
Bovine Respiratory Virus; after 15 days, 4 minutes of approximately 160-260 ppm nitric oxide gas (30-60 breaths), 4/42
  calves exhibiting clinical signs of infection (Bovine Respiratory Virus): 9.5%
Bovine Respiratory Virus; feedlot calves, 15 days
  effectiveness as antiviral agent reducing infectivity relative to conventional vaccines, antiviral agents and antibiotics: almost twice as effective
[1]; 160 ppm gNO, prophylactic vs early detection group, FIG. 17
  clinical scores (industry standard signs): more effective in achieving low clinical scores for the prophylactic group than for the early detection group
[1]; 160 ppm gNO, prophylactic vs early detection group, FIG. 18
  IRT Temperature: more effective in achieving low IRT temperatures for the prophylactic group than for the early detection group
[1]; NO given at Early Detection (IRT) or at Clinical Detection
  calves' temperatures and clinical scores: rapidly resolved
[1]; all NO treated animals regardless of dosing/timing, induction herd: 13 out of 15 required antibiotic treatment
  infection after 6 months: none of the NO treated animals demonstrated infection
[1]; bovine, in vivo
  prevention of infection: effective in preventing infection
  safety of delivery: delivered safely without incident
[1]; prophylactic group, mean over 10 days, […], FIG. 16
  Mean Temperature (IRT): roughly 36.1 °C
Influenza A virus
  influenza A virus in MDCK cell cultures (plaques): significantly less influenza A virus as compared to the air control
[2]; 40 ppm gNO continuously over 4 hours, FIG. 10
  infectivity of influenza A/Victoria/H3N2: no effect
[2]; 80 ppm gNO continuously for 4 hours, FIG. 7, 10
  infectivity of influenza A/Victoria/H3N2: not effective; also recorded: no effect
[2]; 160 ppm gNO and above (160 ppm and 800 ppm), continuously over 4 hours, vs controls and lower concentrations, FIG. 11
  infectivity of influenza A/Victoria/H3N2: effective in reducing the infectivity
[2]; 160 ppm gNO for 4 continuous hours, FIG. 8
  concentration of influenza A/Victoria/H3N2: effective in reducing the concentration of influenza A/Victoria/H3N2; also recorded: significant effect
[2]; 800 ppm gNO continuously over 4 hours, FIG. 11
  infectivity of influenza A/Victoria/H3N2: no real improved effect compared to 160 ppm
[2]; intermittent 160 ppm gNO, 30 minutes once every hour for 4 hours, FIG. 12
  infectivity of influenza A/Victoria/H3N2: more effective than the single 30 minute exposure; also recorded: effective as an anti-infective agent against influenza A/Victoria/H3N2
[2]; single 30 minute exposure to 160 ppm gNO, tracked over 4 hours, FIG. 9, 12
  concentration of influenza A/Victoria/H3N2: effective in reducing concentration of influenza A/Victoria/H3N2; also recorded: as effective as three (3) thirty (30) minute doses of gNO
[3]
  concentration of HPAI H7N3: about 330 PFU/mL
  infectivity of HPAI H7N3, continuous exposure compared with single treatment: comparatively better than the single treatment
[3]; after 3 hours
  infectivity of HPAI H7N3: under 50 PFU/mL
Influenza A/H3N2; 80 ppm gNO continuously for 4 hours, FIG. 4
  infectivity of influenza A/H3N2: not as effective as the 160 ppm concentration
Influenza A/H3N2; 160 ppm gNO for 1, 2 and 3 hours, vs room air control, FIG. 2
  concentration of influenza A/H3N2 (viruses capable of infecting a cell): significantly reduced the concentration of influenza A/H3N2
Influenza A/H3N2; single 30 minute exposure to 160 ppm gNO, plaque assay to 20 hours after exposure, FIG. 5
  concentration of influenza A/H3N2: decreases concentration of influenza A/H3N2 over 20 hours
